From the supplement of paper PMC5908809

How the values were obtained:
[1] = system: normal NK cells expanded with K562-aAPC; test: percent inhibition of viability; higher = more inhibition; conditions: 72 h, IL-2 2.5 ng/mL
Description: (§1)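 Drug sensitivity and resistance testing on K562-aAPC-expanded normal NK cells: 5 concentrations (10-fold steps over a 10,000-fold range), 72 h at 37 °C, viability by CellTiter-Glo normalised to DMSO and benzethonium chloride controls; DSS from the fitted curve.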

DERL-7 (IL-2 2.5 ng/mL) [2] = test: as above; conditions: 72 h
IMC-1 (IL-2 20 ng/mL) [3] = test: as above; conditions: 72 h
KAI3 (IL-2 2.5 ng/mL) [4] = test: as above; conditions: 72 h
KHYG-1 (IL-2 2.5 ng/mL) [5] = test: as above; conditions: 72 h
NK-92 (IL-2 2.5 ng/mL) [6] = test: as above; conditions: 72 h
NK-YS (IL-2 2.5 ng/mL) [7] = test: as above; conditions: 72 h
NKL (IL-2 2.5 ng/mL) [8] = test: as above; conditions: 72 h
SNK-6 (IL-2 2.5 ng/mL) [9] = test: as above; conditions: 72 h
YT (IL-2 2.5 ng/mL) [10] = test: as above; conditions: 72 h
[11] = system: normal primary NK cells, pool 1 (3 donors) (IL-2 2.5 ng/mL); test: as above; conditions: 72 h
[12] = system: normal primary NK cells, pool 1 (3 donors), resting (IL-2 0 ng/mL); test: as above; conditions: 72 h
[13] = system: normal primary NK cells, pool 2 (3 donors) (IL-2 2.5 ng/mL); test: as above; conditions: 72 h
[14] = system: normal primary NK cells, pool 3 (3 donors) (IL-2 2.5 ng/mL); test: as above; conditions: 72 h
[15] = system: normal NK cells expanded with K562-aAPC; test: drug sensitivity score (DSS) (DSS units); higher = more sensitive; extreme values may be limits of the assay; conditions: 72 h; IL-2 2.5 ng/mL
Description: as §1

DERL-7 (IL-2 2.5 ng/mL) [16] = test: as above; conditions: 72 h
IMC-1 (IL-2 20 ng/mL) [17] = test: as above; conditions: 72 h
KAI3 (IL-2 2.5 ng/mL) [18] = test: as above; conditions: 72 h
KHYG-1 (IL-2 2.5 ng/mL) [19] = test: as above; conditions: 72 h
NK-92 (IL-2 2.5 ng/mL) [20] = test: as above; conditions: 72 h
NK-YS (IL-2 2.5 ng/mL) [21] = test: as above; conditions: 72 h
NKL (IL-2 2.5 ng/mL) [22] = test: as above; conditions: 72 h
SNK-6 (IL-2 2.5 ng/mL) [23] = test: as above; conditions: 72 h
YT (IL-2 2.5 ng/mL) [24] = test: as above; conditions: 72 h
[25] = system: normal primary NK cells, pool 1 (3 donors) (IL-2 2.5 ng/mL); test: as above; conditions: 72 h
[26] = system: normal primary NK cells, pool 1 (3 donors), resting (IL-2 0 ng/mL); test: as above; conditions: 72 h
[27] = system: normal primary NK cells, pool 2 (3 donors) (IL-2 2.5 ng/mL); test: as above; conditions: 72 h
[28] = system: normal primary NK cells, pool 3 (3 donors) (IL-2 2.5 ng/mL); test: as above; conditions: 72 h

CCCNC(=O)Nc1ccc(Oc2ncnc3cc(OC)c(OC)cc23)cc1Cl [KRN-633] (max concentration tested 2500 nM)
percent inhibition of viability [%]
Conditions | 0.25 nM | 2.5 nM | 25 nM | 250 nM | 2500 nM
DERL-7 (IL-2 2.5 ng/mL) [2] | -3.34 | 5.83 | -0.63 | -4.25 | 1.83
IMC-1 (IL-2 20 ng/mL) [3] | -4.82 | -0.52 | -0.33 | -1.22 | 4.98
KAI3 (IL-2 2.5 ng/mL) [4] | 2.52 | -4.37 | -1.43 | 15 | 20.2
KHYG-1 (IL-2 2.5 ng/mL) [5] | -7.51 | -5.95 | -2.77 | 2.64 | 8.1
NK-92 (IL-2 2.5 ng/mL) [6] | -15.5 | -4.32 | 5.74 | 16.5 | 24.4
NK-YS (IL-2 2.5 ng/mL) [7] | -5.16 | -9.39 | -4.94 | -0.21 | 16.8
NKL (IL-2 2.5 ng/mL) [8] | -1.85 | 1.84 | 11.4 | 24.8 | 35.1
SNK-6 (IL-2 2.5 ng/mL) [9] | 0.67 | -10.6 | -7.54 | -16.4 | -0.64
YT (IL-2 2.5 ng/mL) [10] | -4.93 | -5.67 | -0.27 | 4.17 | 16.1
[1] | -6.27 | -2.98 | -3.15 | 2.74 | 8.42
[11] | 0.25 | 12.5 | 7.25 | 8.57 | 1.55
[12] | -6.06 | 5.96 | 3.62 | 7.14 | -4.86
[13] | -10.4 | 4.55 | 1.17 | -2.44 | 3.9
[14] | -5.17 | 5.1 | -2.11 | -6.67 | -1.34

Conditions | drug sensitivity score
DERL-7 (IL-2 2.5 ng/mL) [16] | 0
IMC-1 (IL-2 20 ng/mL) [17] | 0
KAI3 (IL-2 2.5 ng/mL) [18] | 2.05
KHYG-1 (IL-2 2.5 ng/mL) [19] | 0
NK-92 (IL-2 2.5 ng/mL) [20] | 2.65
NK-YS (IL-2 2.5 ng/mL) [21] | 0.34
NKL (IL-2 2.5 ng/mL) [22] | 5.19
SNK-6 (IL-2 2.5 ng/mL) [23] | 0
YT (IL-2 2.5 ng/mL) [24] | 0.73
[15] | 0
[25] | 0
[26] | 0
[27] | 0
[28] | 0

O=C(CCBr)N1CCN(C(=O)CCBr)CC1 [Pipobroman] (max concentration tested 10000 nM)
percent inhibition of viability [%]
Conditions | 1 nM | 10 nM | 100 nM | 1000 nM | 10000 nM
DERL-7 (IL-2 2.5 ng/mL) [2] | -7.31 | -1.37 | 2 | -0.47 | -5.96
IMC-1 (IL-2 20 ng/mL) [3] | -6.08 | -8.46 | -2.84 | 4.89 | 11.6
KAI3 (IL-2 2.5 ng/mL) [4] | -6.26 | -3.77 | 3.05 | 9.16 | 13.5
KHYG-1 (IL-2 2.5 ng/mL) [5] | -9.07 | -13.9 | -7.89 | 3.77 | 13.7
NK-92 (IL-2 2.5 ng/mL) [6] | -22.2 | -18.9 | -1.01 | 4.98 | 22.7
NK-YS (IL-2 2.5 ng/mL) [7] | -6.73 | -7.25 | -3.41 | 11.6 | 20.9
NKL (IL-2 2.5 ng/mL) [8] | -27.2 | -17.8 | -14.3 | 16.6 | 15.7
SNK-6 (IL-2 2.5 ng/mL) [9] | -14.3 | -17.7 | -17.4 | -17.5 | -6.39
YT (IL-2 2.5 ng/mL) [10] | -7.45 | -10.7 | -5.22 | 0.28 | 12.2
[1] | -6.43 | -6.37 | -5.59 | 7.79 | 18.1
[11] | 1.85 | -2.09 | 11.8 | -0.73 | 2.49
[12] | 2.78 | -3.45 | 22.7 | 19.1 | 26.8
[13] | -5.41 | -3.61 | 2.8 | 4.47 | 2.02
[14] | -9.04 | -2.96 | 2.05 | 2.18 | 15.1

Conditions | drug sensitivity score
DERL-7 (IL-2 2.5 ng/mL) [16] | 0
IMC-1 (IL-2 20 ng/mL) [17] | 0.19
KAI3 (IL-2 2.5 ng/mL) [18] | 0.46
KHYG-1 (IL-2 2.5 ng/mL) [19] | 0.42
NK-92 (IL-2 2.5 ng/mL) [20] | 1.49
NK-YS (IL-2 2.5 ng/mL) [21] | 1.85
NKL (IL-2 2.5 ng/mL) [22] | 1.54
SNK-6 (IL-2 2.5 ng/mL) [23] | 0
YT (IL-2 2.5 ng/mL) [24] | 0.07
[15] | 1.23
[25] | 0
[26] | 6.82
[27] | 0
[28] | 0.45
